According to US9718774B2, “Indole carboxamide derivatives as P2X7 receptor antagonist” (ACTELION PHARMACEUTICALS LTD, priority 2012, dated 2017):

Target: T1, human recombinant P2X7 receptor (Homo sapiens, UniProt Q99572)
T1 construct: expressed in transfected cells
T1 sequence (Q99572 1-595): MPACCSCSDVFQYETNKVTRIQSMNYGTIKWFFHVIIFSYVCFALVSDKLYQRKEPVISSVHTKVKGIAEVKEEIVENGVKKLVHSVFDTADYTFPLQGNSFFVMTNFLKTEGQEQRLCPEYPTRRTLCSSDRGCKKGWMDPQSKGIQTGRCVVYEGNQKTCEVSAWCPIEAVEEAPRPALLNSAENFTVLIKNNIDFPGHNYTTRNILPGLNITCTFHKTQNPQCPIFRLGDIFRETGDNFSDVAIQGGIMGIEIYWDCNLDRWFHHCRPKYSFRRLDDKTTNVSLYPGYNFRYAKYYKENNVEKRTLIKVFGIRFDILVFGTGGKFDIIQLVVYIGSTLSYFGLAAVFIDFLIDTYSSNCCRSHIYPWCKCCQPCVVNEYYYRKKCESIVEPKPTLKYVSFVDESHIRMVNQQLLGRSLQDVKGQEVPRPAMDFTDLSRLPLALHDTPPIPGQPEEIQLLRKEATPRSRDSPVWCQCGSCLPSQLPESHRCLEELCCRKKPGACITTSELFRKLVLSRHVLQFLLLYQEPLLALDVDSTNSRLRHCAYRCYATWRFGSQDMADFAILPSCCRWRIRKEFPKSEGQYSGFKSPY
Assay: YO-PRO assay: P2X7 receptor antagonistic activity in HEK cells stably expressing P2X7
Format: cell-based
Conditions: antagonistic activity with respect to the P2X7 receptor, read-out: IC50
Method: The P2X7 receptor antagonistic activity of the compounds of formula (I) is determined in accordance with the following experimental method.
Cell Line Generation and YO-PRO Assay
Cell line generation was performed in general according to established molecular cloning protocols. Specifically, RNA was extracted from human whole blood using the Qiagen RNeasy kit (Qiagen, CH) according to the manufacturer's instructions. Subsequently cDNA was made (Superscript II, Invitrogen AG, CH) and the human P2X7 gene (genbank ref. BC011913) was amplified with the following primers: […] and […]. The amplified sequence was subsequently ligated into a pcDNA3.1 (+) NotI, NheI digested plasmid. Human embryonic kidney (HEK) cells (ATCC CRL—1573, Manassas, Va., USA) were transfected with the pcDNA3.1 (+).hP2X7 plasmid using lipofectamine 2000 (Invitrogen AG, CH) according to the manufacturer's instructions. Following a 24 h exposure to DNA, cells were trypsinized and re-seeded at low density in the presence of 250 μg Geneticin. Geneticin resistant cells were then selected during two consecutive rounds of cloning by serial limiting dilution with visual inspection. Individual clones were screened for P2X7 expression by applying ATP and recording the resultant uptake of YO-PRO1. Specific cell clones were chosen based on RNA and protein expression. HEK cells stably expressing P2X7 were used to screen drugs using the YO-PRO1 assay. Cells were grown to confluency in adherent culture at 37° C. in a humidified 5% CO2 incubator (split 1/5 every 3-4 days with DMEM, 10% FCS, 1% Penicillin/Streptomycin, 250 μg/ml Geneticin). Adherent cells were detached by incubation with Trypsine (1 ml per 165 cm^2 dish) for 2 minutes, then washed off with 10 ml PBS (without Mg^2+ and Ca^2+), and resuspended in DMEM, 10% FCS, 1% Penicillin/Streptomycin, no Geneticin. 10′000 cells per well (48 hours before the assay) or 25′000 cells per well (Vi-cell XR (Beckman Coulter) (24 hours before the assay) in 50 μl full medium were seeded on 384-well black-wall, clear bottom plates, that were coated before with 10 μl per well Poly-L-Lysine, incubated for 30-60 minutes at 37° C. and washed once with PBS. Medium was removed from cells and 50 μl of assay buffer containing 0.5 μM YO-PRO-1 was added into the wells. Solutions of antagonist compounds were prepared by serial dilutions of a 10 mM DMSO solution of the antagonist into PBS using a BioMek (Beckman Coulter). Each concentration was performed in duplicate. For IC50 measurements 10 concentration points were measured (10 μM being the highest concentration followed by 9 serial dilution steps 1/3). The cells were incubated with the antagonists of the present invention together with ATP at a final concentration of 250 μM for 90 minutes. During this time period, four time points were taken. Each time point comprised the average of several measurements made within a few seconds. Fluorescence was measured in the FLIPR tetra (Molecular Devices) using the filters appropriate for YO-PRO-1 fluorescence (excitation 485/20, emission 530/25). The FLIPR tetra was equipped with Molecular Devices Screen Works system control software to define and run experimental protocols. […] For IC50 measurements the maximum intensity is plotted against the concentration of compound to determine IC50 values.

| IC50 [µM] | Compound |
| --- | --- |
| 1.01 | O=C(NCC(c1cccnn1)N1CCCCC1)c1ccc2[nH]ccc2c1Cl (racemic) [Example 73, rac-4-Chloro-1H-indole-5-carboxylic acid (2-piperidin-1-yl-2-pyridazin-3-yl-ethyl)-amide] |
| 0.774 | Cc1ccc(C(CNC(=O)c2ccc3[nH]ccc3c2Cl)N2CCCCC2)cc1 (racemic) [Example 55, rac-4-Chloro-1H-indole-5-carboxylic acid (2-piperidin-1-yl-2-p-tolyl-ethyl)-amide] |
| 0.126 | CC(=O)N1CCC(C(CNC(=O)c2ccc3[nH]ccc3c2Cl)c2cccnc2)CC1 (racemic) [Example 22, rac-4-Chloro-1H-indole-5-carboxylic acid [2-(1-acetyl-piperidin-4-yl)-2-pyridin-3-yl-ethyl]-amide] |
| 0.015 | CCc1cc(C(=O)NCC(c2cnc(C)nc2)N2CCOCC2)c(Cl)c2cc[nH]c12 (racemic) [Example 107, rac-4-Chloro-7-ethyl-1H-indole-5-carboxylic acid [2-(2-methyl-pyrimidin-5-yl)-2-morpholin-4-yl-ethyl]-amide] |
| 0.889 | O=C(NCC(c1ccc(C(F)(F)F)cc1)N1CCCCC1)c1ccc2[nH]ccc2c1Cl (racemic) [Example 44, rac-4-Chloro-1H-indole-5-carboxylic acid [2-piperidin-1-yl-2-(4-trifluoromethyl-phenyl)-ethyl]-amide] |
| 0.076 | O=C(NCC(c1ccc(Cl)nc1)C1CCCCC1)c1ccc2[nH]ccc2c1Cl (racemic) [Example 65, rac-4-Chloro-1H-indole-5-carboxylic acid [2-(6-chloro-pyridin-3-yl)-2-cyclohexyl-ethyl]-amide] |
| 0.085 | CCN(CC)C(CNC(=O)c1ccc2[nH]ccc2c1Cl)c1cnc(C)nc1 (racemic) [Example 15, rac-4-Chloro-1H-indole-5-carboxylic acid [2-diethylamino-2-(2-methyl-pyrimidin-5-yl)-ethyl]-amide] |
| 0.035 | CC(C)(C)OC(=O)N1CCC(C(CNC(=O)c2ccc3[nH]ccc3c2Cl)c2cccnc2)CC1 (racemic) [Example 19, rac-4-{2-[(4-Chloro-1H-indole-5-carbonyl)-amino]-1-pyridin-3-yl-ethyl}-piperidine-1-carboxylic acid tent-butyl ester] |
| 0.032 | CC(C)CC(CNC(=O)c1ccc2[nH]ccc2c1Cl)c1ccc(Cl)nc1 (racemic) [Example 66, rac-4-Chloro-1H-indole-5-carboxylic acid [2-(6-chloro-pyridin-3-yl)-4-methyl-pentyl]-amide] |
| 0.01 | Cc1ncc(C(CNC(=O)c2cc(CC(C)C)c3[nH]ccc3c2Cl)N2CCOCC2)cn1 (racemic) [Example 98, rac-4-Chloro-7-isobutyl-1H-indole-5-carboxylic acid [2-(2-methyl-pyrimidin-5-yl)-2-morpholin-4-yl-ethyl]-amide] |
| 0.463 | Cc1ncc(C(CNC(=O)c2ccc3[nH]c(C)cc3c2Cl)N2CCOCC2)cn1 (racemic) [Example 72, rac-4-Chloro-2-methyl-1H-indole-5-carboxylic acid [2-(2-methyl-pyrimidin-5-yl)-2-morpholin-4-yl-ethyl]-amide] |
| 0.232 | Cc1cnc(C(CNC(=O)c2ccc3[nH]ccc3c2Cl)N2CCCCC2)cn1 (racemic) [Example 60, rac-4-Chloro-1H-indole-5-carboxylic acid [2-(5-methyl-pyrazin-2-yl)-2-piperidin-1-yl-ethyl]-amide] |
| 1.47 | Cc1ncc(C(CNC(=O)c2ccc3[nH]ccc3c2Cl)NCC2CCCC2)cn1 (racemic) [Example 84, rac-4-Chloro-1H-indole-5-carboxylic acid [2-(cyclopentylmethyl-amino)-2-(2-methyl-pyrimidin-5-yl)-ethyl]-amide] |
| 0.025 | Cc1ncc(C(CNC(=O)c2ccc3[nH]ccc3c2Cl)N2CCCCCC2)cn1 (racemic) [Example 80, rac-4-Chloro-1H-indole-5-carboxylic acid [2-azepan-1-yl-2-(2-methyl-pyrimidin-5-yl)-ethyl]-amide] |
| 1.3 | O=C(NCC(c1c(F)cc(F)cc1F)N1CCCCC1)c1ccc2[nH]ccc2c1Cl (racemic) [Example 30, rac-4-Chloro-1H-indole-5-carboxylic acid [2-piperidin-1-yl-2-(2,4,6-trifluoro-phenyl)-ethyl]-amide] |
| 0.211 | Cc1ncc(C(CNC(=O)c2c(Cl)cc3[nH]ccc3c2Cl)N2CCOCC2)cn1 (racemic) [Example 94, rac-4,6-Dichloro-1H-indole-5-carboxylic acid [2-(2-methyl-pyrimidin-5-yl)-2-morpholin-4-yl-ethyl]-amide] |
| 0.033 | CC(=O)c1cc(C(=O)NCC(c2cnc(C)nc2)N2CCOCC2)c(Cl)c2cc[nH]c12 (racemic) [Example 102, rac-7-Acetyl-4-chloro-1H-indole-5-carboxylic acid [2-(2-methyl-pyrimidin-5-yl)-2-morpholin-4-yl-ethyl]-amide] |
| 0.053 | O=C(NCC(c1cncs1)N1CCOCC1)c1ccc2[nH]ccc2c1Cl (racemic) [Example 64, rac-4-Chloro-1H-indole-5-carboxylic acid (2-morpholin-4-yl-2-thiazol-5-yl-ethyl)-amide] |
| 0.018 | CCCc1cc(C(=O)NCC(c2cnc(C)nc2)N2CCOCC2)c(Cl)c2cc[nH]c12 (racemic) [Example 111, rac-4-Chloro-7-propyl-1H-indole-5-carboxylic acid [2-(2-methyl-pyrimidin-5-yl)-2-morpholin-4-yl-ethyl]-amide] |
| 1.61 | O=C(NCC(c1cccnn1)N1CCOCC1)c1ccc2[nH]ccc2c1Cl (racemic) [Example 90, rac-4-Chloro-1H-indole-5-carboxylic acid (2-morpholin-4-yl-2-pyridazin-3-yl-ethyl)-amide] |
| 0.032 | O=C(NCC(c1cccnc1)N1CCOCC1)c1ccc2[nH]ccc2c1Cl (racemic) [Example 25, rac-4-Chloro-1H-indole-5-carboxylic acid (2-morpholin-4-yl-2-pyridin-3-yl-ethyl)-amide] |
| 0.01 | O=C(NCC(c1cncnc1)N1CCOCC1)c1ccc2[nH]ccc2c1Cl (racemic) [Example 26, rac-4-Chloro-1H-indole-5-carboxylic acid (2-morpholin-4-yl-2-pyrimidin-5-yl-ethyl)-amide] |
| 0.161 | Cn1cc(C(CNC(=O)c2ccc3[nH]ccc3c2Cl)N2CCCCC2)cn1 (racemic) [Example 29, rac-4-Chloro-1H-indole-5-carboxylic acid [2-(1-methyl-1H-pyrazol-4-yl)-2-piperidin-1-yl-ethyl]-amide] |
| 0.022 | CCC(CC)OC(CNC(=O)c1ccc2[nH]ccc2c1Cl)c1cnc(C)nc1 (racemic) [Example 71, rac-4-Chloro-1H-indole-5-carboxylic acid [2-(1-ethyl-propoxy)-2-(2-methyl-pyrimidin-5-yl)-ethyl]-amide] |
| 0.277 | Cc1ncc(C(CNC(=O)c2ccc3[nH]ccc3c2Cl)N2CCN(C(=O)OC(C)(C)C)CC2)cn1 (racemic) [Example 89, rac-4-[2-[(4-Chloro-1H-indole-5-carbonyl)-amino]-1-(2-methyl-pyrimidin-5-yl)-ethyl]-piperazine-1-carboxylic acid tert-butyl ester] |
